According to US7273713B2, “Methods of modulating mitochondrial NAD-dependent deacetylase” (The Regents of the University of California, priority 2002, dated 2007):

Tests used:
[1] = system: NAD-dependent deacetylase activity in human mitochondrial fractions prepared from HEK293T cells; experiment: In vitro deacetylase assay on mitochondrial lysates, acetylated histone H4 peptide; details: NAD 1 mM, 2 hrs
Protocol: Deacetylase assays were performed in a total volume of 100 μl SIRT deacetylase buffer (4 mM MgCl2, 0.2 mM dithiothreitol, 50 mM Tris-HCl, pH 9.0) containing immunoprecipitated proteins or mitochondrial lysates and a peptide corresponding to the first the first 22 amino acids of histone 4 chemically acetylated in vitro (27). Where indicated, 1 mM NAD, 5 mM nicotinamide (both from Sigma, St. Louis, Mo.) or 400 nM TSA (WAKO, Richmond, Va.) were added. Deacetylation reactions were stopped after 2 hours of incubation at room temperature by adding 25 μl stop solution (0.1 M HCl, 0.16 M acetic acid). Released acetate was extracted into 500 μl ethyl acetate and samples were vigorously shaken for 15 minutes. After centrifugation for 5 minutes, 400 μl of the ethyl acetate fraction was mixed with 5 ml scintillation fluid (Packard, Meriden, Conn.) and the released radioactivity was measured using a liquid scintillation counter.
Mitochondrial lysates were prepared from HEK293T cells and protein content was determined. […] Samples were incubated for 2 hrs at 25° C.

[2] = target: T1, hSIRT3 (Homo sapiens, UniProt Q9NTG7); experiment: In vitro deacetylase assay on mitochondrial lysates of hSIRT3-transfected cells; type: biochemical; details: lysates of hSIRT3-transfected HEK293T cells, compared with untransfected lysates
T1 construct: proteolytically cleaved by mitochondrial matrix processing peptidase (MPP) between residues Ser101 and Ilel02; expressed in transfected cells; host or cells: HEK293T cells, mitochondrial lysate in TXIP-1 buffer
T1 sequence (Q9NTG7 102-399 limits assumed): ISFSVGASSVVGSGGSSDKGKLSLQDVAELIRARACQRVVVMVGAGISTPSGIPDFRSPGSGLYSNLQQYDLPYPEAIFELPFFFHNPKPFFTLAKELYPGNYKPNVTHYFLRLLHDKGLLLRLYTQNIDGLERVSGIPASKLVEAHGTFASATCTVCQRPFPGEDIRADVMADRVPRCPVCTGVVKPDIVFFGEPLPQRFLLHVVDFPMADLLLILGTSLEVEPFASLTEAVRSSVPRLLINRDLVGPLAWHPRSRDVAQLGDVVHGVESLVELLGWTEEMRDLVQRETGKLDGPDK

[3] = system: import of hSIRT3 into isolated mammalian mitochondria; experiment: Import of radiolabeled hSIRT3 into isolated mitochondria; details: antimycin 8 μM, oligomycin 20 μM and valinomycin 1 μM added together to dissipate the transmembrane potential
Protocol: Import into isolated mitochondria was carried out as previously reported (22). Proteins were synthesized in the presence of [^35S]-methionine by coupled transcription-translation in reticulocyte lysate (Promega, Madison, Wis.) (23). In vitro translation reactions were centrifuged at 108,000×g, 2° C. for 15 min and adjusted to 250 mM sucrose. Import reactions contained 5% (v/v) reticulocyte lysate in import buffer (3% (w/v) fatty-acid free bovine serum albumin (BSA), 250 mM sucrose, 80 mM KCl, 5 mM MgCl2, 2 mM KH2PO4, 5 mM L-methionine, 10 mM 3-[N-morpholino]propanesulfonic acid-KOH, pH 7.2). In each import reaction, 50 μg of freshly isolated mammalian mitochondria were mixed with radiolabeled proteins and incubated at 30° C. ATP (2 mM) and sodium succinate (10 mM) were added to maintain coupling of isolated mitochondria. Import was stopped by addition of valinomycin (1 μM) and transfer to 0°C.
Where indicated, samples were treated with proteinase K (50 μg/ml) for 10 min on ice. Protease treatment was stopped by addition of 2 mM phenylmethylsulfonyl fluoride (PMSF). Mitochondria were reisolated by centrifugation at 10,000×g for 5 min at 4° C., washed in SEM buffer and recentrifuged as above. Mitochondrial pellets were resuspended in SDS sample buffer containing dithiothreitol (DTT) and heated to 95° C. for 5 min. Samples were subjected to SDS-PAGE. Dried gels were exposed to Biomax MR film (Kodak, Rochester, N.Y.) at −70° C. and analyzed on a Fuji FUJIX BAS 1000 phosphorimager. […]
FIG. 4. […] After reisolation of mitochondria and SDS-PAGE, the amounts of imported proteins were quantified by phosphorimaging. FIG. 4B, Quantitation of imported protein by phosphorimaging. […] Reisolated and washed mitochondria were lysed in SDS sample buffer and analyzed by SDS-PAGE. […] FIG. 4E, Import efficiency of individual hSIRT3 mutants was quantitated in relation to their standards by phosphorimaging. […]

Compound | effect on import of hSIRT3 across the mitochondrial membrane [3] | further results
CC(/C=C/C(=O)NO)=C\[C@@H](C)C(=O)c1ccc(N(C)C)cc1 [TSA, trichostatin A] | – | effect on NAD-dependent deacetylase activity of mitochondrial lysate ([1]; TSA 400 nM): no effect; sensitivity of deacetylase activity of mitochondrial lysates overexpressing hSIRT3 [2]: same properties as untransfected mitochondrial lysates
CC(C)[C@@H]1NC(=O)[C@H](C)OC(=O)[C@@H](C(C)C)NC(=O)[C@@H](C(C)C)OC(=O)[C@H](C(C)C)NC(=O)[C@H](C)OC(=O)[C@@H](C(C)C)NC(=O)[C@@H](C(C)C)OC(=O)[C@H](C(C)C)NC(=O)[C@H](C)OC(=O)[C@@H](C(C)C)NC(=O)[C@@H](C(C)C)OC1=O [valinomycin] | inhibited | –
CC[C@H]1/C=C/C=C/C[C@@H](C)[C@H](O)[C@@](C)(O)C(=O)[C@@H](C)[C@H](O)[C@@H](C)C(=O)[C@@H](C)[C@H](O)[C@@H](C)/C=C/C(=O)O[C@@H]2[C@H](C)[C@H](CC1)O[C@]1(CC[C@H](C)[C@H](C[C@@H](C)O)O1)[C@H]2C [oligomycin] | inhibited | –
antimycin | inhibited | –
NC(=O)c1cccnc1 [nicotinamide] | – | effect on NAD-dependent deacetylase activity of mitochondrial lysate ([1]; nicotinamide 5 mM): suppressed
